“Also recorded” adds a separate entry of the source.
What was measured:
Gli1 mRNA = Gli1 mRNA expression in tumor stroma (RT-PCR); type: in vivo, murine; details: animals receiving IPI-926 (40 mg/kg) compared to vehicle
Source text: In each of these cases, the action of IPI-926 coincides with downregulation of mRNA for Gli1, an important molecule in the Hedgehog signaling pathway, in the tumor stroma of experimental animals receiving IPI-926 (FIG. 12A). The downregulation of Gli1 mRNA can be used as a functional readout for inhibition of Hedgehog signaling. Moreover, in these models, it appears to be the cancer cells that express the ligand of the Hedgehog signaling pathway (FIG. 12B). Thus, without being bound by theory, Applicants believe that the tumor cells express Hedgehog ligand which signals to a tumor associated stromal cell.
RNA for analysis was isolated from cell pellets or tumor tissue using the Ambion RNA 4-PCR isolation kit according to the manufacturer's guidance. Reverse transcription-PCR was performed for human GAPDH, Gli l and SHh and murine GAPDH, Gli1, PECAM and RGS5 using an ABI-7300 system with ABI primer/probes. Relative quantification of the expression data was obtained using the ΔΔCT method as described by Applied Biosystems.

Hedgehog pathway = details: after single administration; cited from earlier work
murine Gli1 = assay: Gli1 mRNA in sorted stromal cell fractions of tumors; type: in vivo; details: Lin+/Lin- and CD31+/CD31- fractions; IPI-926 40 mg/kg 24 hours prior to sacrifice
Source text: Since tumor-associated stroma is a complex mixture of different cell types, further experiments have been carried out to determine the identity of the IPI-926-responsive cells. Tumors were obtained from animals treated or untreated with IPI-926 and the cells from within the tumors were subsequently fractionated in the following manner. First, the human cancer cells were removed from the mixture using magnetic beads that were coated with an antibody against the cell surface marker, Ep-CAM. Those cells that remained were the murine stromal cells associated with that tumor. Next, these stromal cells were subsequently separated based on their expression of cell surface markers known to be associated with specific cell lineages. In one sample set, cells were separated based on their expression of a panel of markers specific for cells of the hematopoietic lineage. These cells can be referred to as either Lin− or Lin+. […]
Cells used for sorting experiments were obtained by the following procedure. […] After this incubation, the cells in the flow through and the column were then analyzed for their expression of specific mRNAs by RT-PCR.
RNA for analysis was isolated from cell pellets or tumor tissue using the Ambion RNA 4-PCR isolation kit according to the manufacturer's guidance. […] Relative quantification of the expression data was obtained using the ΔΔCT method as described by Applied Biosystems.

hGli-1 mRNA expression = assay: Gli-1 mRNA expression after SHh stimulation in tumor cell lines (qRT-PCR); type: cell-based, human; details: SW872 liposarcoma cell lines; 500 nM IPI-926
Method: Several tumor cell lines were tested for Hh pathway responsiveness and for the presence or absence of cilia or vimentin immunofluorescence (IF). Hh pathway responsiveness was evaluated by detecting increases in hGli-1 mRNA expression in response to Sonic Hedgehog stimulation) in a control sample (C), sample treated with Sonic Hedgehog (SHh), and sample treated with SHh and 500 nM of the hedgehog inhibitor IPI-926 (926). Procedures for RNA extraction and RT-PCR detection were performed by standard methods. Briefly, total RNA was extracted from all tumors using a standard RNEASY® Mini Kit (Qiagen). Next, the RNA was converted to cDNA and 50 ng cDNA was used in each reaction/sample for qRT-PCR analysis of the expression of human Gli1. Samples were tested in duplicate. Cilia and Vimentin IF was performed using standard immunofluorescent methods. Cilia were detected on cells using immunofluorescence (IF) with antibodies specific for acetylated-tubulin obtained from Sigma Aldrich. Cells were co-stained with antibodies to the centriole-specific protein pericentrin.
Hh pathway modulation measured after growing cells in low serum and treating with SHh ligand in the presence or absence of IPI-926. Cell lines were cultured under the following conditions. […]

SHh signaling = SHh signaling in pericytic C3H10T1/2 cell cultures (qRT-PCR); type: cell-based, Mouse; details: pericytic C3H10T1/2 cells, SHh plus IPI-926
Method: To test this, a model of pericyte cell differentiation, the C3H10T1/2 cells was evaluated. C3H10T1/2 cells were differentiated in vitro into pericytes. C3H10T1/2 cells are believed to be pluripotent mesenchymal cells, which can be induced to differentiate into multiple different cell lineages, including myoblasts, adipocytes, osteoblasts and pericytes (Taylor, et al. (1979) Cell 17(4):771-9). In this case, cells are cultured to confluence and then allowed to differentiate over the course of 5 additional days of culture. At this time, the cells are seen to express high levels of CD13, an established marker of pericytes.
We subsequently explored if SHh signaling was intact in these pericyte cultures. In a typical experiment, confluent C3H10T1/2 cells were allowed to differentiate into pericyte-like cells. After 5 days in culture, SHh with or without IPI-926 were added to the cells in the presence of normal serum. On day 8 of culture, cells were re-fed SHh with or without IPI-926 and shifter to low serum. qRT-PCR analysis was performed on day 9. SHh signaling was detected in these cells as measured by Gli1 mRNA upregulation; the SHh signaling was inhibited by IPI-926 (FIG. 28). Cells were treated on day 8; Gli1 mRNA levels were evaluated in control samples, after SHh addition, after SHh and IPI-926 and cells treated with IPI-926 alone as shown in FIG. 28. […]

## CC1=C2C[C@H]3[C@@H](CC[C@@H]4C[C@H](NS(C)(=O)=O)CC[C@@]43C)[C@@H]2CC[C@@]2(C1)O[C@@H]1C[C@H](C)CN[C@H]1[C@H]2C [IPI-926]
Gli1 mRNA
  Gli1 mRNA expression in tumor stroma: inhibition; also recorded: suppression; also recorded: downregulation
Hedgehog pathway
  Hedgehog pathway inhibition in stromal cells: rapid and sustained Hedgehog pathway inhibition
Murine Gli1
  murine Gli1 inhibition in stromal cell fractions: greatest degree of murine Gli1 inhibition was present in both the Lin-population and CD31-population
hGli-1 mRNA expression
  SHh-upregulated Gli-1 mRNA expression: blocked
SHh signaling
  SHh-induced Gli1 mRNA upregulation: inhibited
  SHh-induced downregulation of RGS5 mRNA: reversed

Reference: patent US20150025012A1, “METHODS AND COMPOSITIONS FOR IDENTIFICATION, ASSESSMENT AND TREATMENT OF CANCERS ASSOCIATED WITH HEDGEHOG SIGNALING” (Infinity Pharmaceuticals, Inc., priority 2010, published 2015)
